Test results: patent US8372443B2, “Methods and compositions for the treatment and prevention of citrus greening disease” (priority 2008, dated 2013)

Tests used:
D. citri [1] = assay: 4-choice olfactometer behavioral bioassay; format: in vivo, Diaphorina citri; settings: for t (percentages of repelled versus attracted D. citri, student's t-test): laboratory air, 1.5 h
Description: Adult D. citri used for the behavioral bioassays were drawn from a continuously reared culture at the University of Florida Citrus Research and Education Center (Lake Alfred, USA) and established in 2000 from field populations in Polk Co., FL, USA (28.0′N, 81.9′W) prior to the discovery of citrus greening disease in FL. This culture is maintained on sour orange (Citrus aurantium L.) and ‘Hamlin’ orange [C. sinensis (L.)] seedlings at 27±1° C., 63±2% RH, and L14:D10 photoperiod. Freshly emerged unsexed adult psyllids were first placed on citrus seedlings in Plexiglass cages for up to 7 d for sexual maturation prior to use in experiments.
Husbandry methods for the ‘white’ guava and ‘Hamlin’ citrus plants used in these investigations have been described previously (Rouseff et al., 2008). ‘Hamlin’ citrus was selected for analysis because it is one of the most highly cultivated citrus varieties in Florida. Half of the samples were gently crushed (using a clean glass rod) to simulate plant damage and the remaining half were not crushed. All samples ([…] leaf flush/sample) were wrapped in Kim wipes (Kimberly-Clark®, Ontario, Canada) and placed in 2.5 cm×12.5 cm extending glass tubes of a 4-choice olfactometer [Analytical Research Systems, ARS (Gainesville, Fla.)], for behavioral investigations described below.
Behavioral responses of D. citri to citrus volatiles with or without guava or DMDS volatiles were quantified using a 4-choice olfactometer (Analytical Research Systems, Inc. (ARS), Gainesville, Fla., USA) based on the design of Pettersson (1970), Vet et al. (1983) and Kalule & Wright (2004). The olfactometer consists of a 5 cm×30 cm×30 cm stage on four 2.5 cm×15 cm legs with extending orifices on four sides of the stage. Charcoal-purified and humidified air was drawn through these arms via a vacuum pump creating four potential odor fields. Air pulled through the olfactometer was evacuated through a central orifice on the floor of the stage. During each experimental run, two of the four orifices on the sides of the stage were designated for odor stimuli treatments and the two others were left as blank. […] The effect of repellent chemicals was measured by adding guava leaves or a formulation of synthetic DMDS to citrus flush in two arms of the olfactometer as described below. […]
The behavioral response of adult D. citri to clean laboratory air was first investigated to 4 blank arms of the olfactometer as a negative control to ensure no positional bias. Thereafter, D. citri response was measured to citrus leaf volatiles with and without volatiles from guava leaves or synthetic DMDS. […]

D. citri [2] = assay: Y-tube olfactometer test; format: in vivo, Diaphorina citri
Description: In order to confirm the repellent effect of synthetic DMDS against D. citri, an additional study using a Y-tube olfactometer (ARS, Gainesville, Fla., USA) was conducted. The Y-tube consisted of a central stem (13.5 cm long, 2.4 cm o.d.) with two lateral arms (5.75 cm long, 2.4 cm o.d.). The lateral arms were connected to extending glass tubes (14.5 cm long, 1.9 cm o.d.) with inlayed sieves (5.25 cm away from connection) to prevent insect escape and serve as an end point of the lateral arms. Charcoal-filtered laboratory air was passed from an air pump, into each of the extending arms of the olfactometer at a rate 100 mL/min. […]
Adult psyllids that oriented to any of the four arms of the olfactometer were categorized as attracted and those that remained in the olfactometer's central orifice (release point) until the 1.5 h experimental period elapsed as repelled. […] Subsequently, data obtained for D. citri orientation to the four arms (two volatile sources and two laboratory air) was analyzed for each treatment using one-way step-wise ANOVA followed by Tukey's HSD test (P<0.05, SAS Institute Inc., 2003). The data obtained from the Y-tube olfactometer bioassays was analyzed using Chi-square (χ^2) analyses (Parker, 1979) to compare between the numbers of attracted versus repelled D. citri (P<0.05).

[3] = system: Mediterranean fruit fly, Ceratitis capitata; settings: literature reference 23; cited from earlier work

Compound: CSSC [DMDS, dimethyl disulfide]
- repellence of adult D. citri at the selected dosage (preliminary investigation) (D. citri [1]; 100 μL of a 4.3 μg/μL (w/v) solution in mineral oil on cotton wick, compared with lower dosages on a log scale (data not shown)): optimally repel
- t (percentages of repelled versus attracted D. citri, student's t-test) (D. citri [1]; Experiment 2: arms laboratory air, intact citrus, DMDS, 100 μL of 4.3 μg/μL DMDS in mineral oil): 3.05
- t (percentages of repelled versus attracted D. citri, student's t-test) (D. citri [1]; Experiment 3: arms laboratory air, crushed citrus, DMDS): 7.23
- t (percentages of repelled versus attracted D. citri, student's t-test) (D. citri [1]; Experiment 4: arms laboratory air, mineral oil, DMDS (DMDS only)): 6.25
- effect on D. citri's response to citrus flush volatiles (D. citri [2]; Y-tube first experiment: 100 μL DMDS solution in mineral oil plus ~3.5 g citrus flush in both arms versus citrus alone, χ2=2.57, P=0.109): significantly inhibited
- percentage of D. citri choosing the arm releasing clean air versus DMDS (D. citri [2]; Y-tube second experiment: DMDS in mineral oil in one arm, clean laboratory air in the other, 300 s, χ2=5.0, P=0.025): ~75%

Compound: CC1=CC[C@H]2[C@H]3[C@@H]1[C@]2(C)CC[C@H]3C(C)C [α-Copaene]
- reported behavioural effect on Mediterranean fruit fly [3]: attractant
